Reference: PubChem BioAssay AID256 (DTP/NCI, 2004)
“And” between values parts separate entries of the source, which are not always exact repeats. Identical values can stand only once. Toxic doses and inconclusive results are not listed. How the source made its calls: active means survival T/C of 150% or more; inactive means T/C below 125% in these data.

System: CD2F1 mice, L1210 leukemia ip, survival T/C
Assay: NCI In Vivo Anticancer Drug Screen. Data for tumor model L1210 Leukemia (intraperitoneal) in CD2F1 (CDF1) mice
Settings: higher = longer survival
Method in brief: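 Antitumor effect is scored in animals hosting a serially transplanted tumor. Values compare compound-dosed animals against vehicle-only controls as a simple quotient.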

[1] = endpoint: mean survival time, dose: 100.0 mg/kg/injection, schedule: Q01DX009 (ip), vehicle: saline with Tween-80
[2] = endpoint: mean survival time, dose: 100.0 mg/kg/injection, schedule: Q04DX003 (ip), vehicle: saline with Tween-80
[3] = endpoint: mean survival time, dose: 200.0 mg/kg/injection, schedule: Q01DX009 (ip), vehicle: saline with Tween-80
[4] = endpoint: mean survival time, dose: 200.0 mg/kg/injection, schedule: Q04DX003 (ip), vehicle: saline with Tween-80
[5] = endpoint: mean survival time, dose: 400.0 mg/kg/injection, schedule: Q01DX009 (ip), vehicle: saline with Tween-80
[6] = endpoint: mean survival time, dose: 400.0 mg/kg/injection, schedule: Q04DX003 (ip), vehicle: saline with Tween-80
[7] = endpoint: mean survival time, dose: 50.0 mg/kg/injection, schedule: Q01DX009 (ip), vehicle: saline with Tween-80
[8] = endpoint: mean survival time, dose: 25.0 mg/kg/injection, schedule: Q01DX009 (ip), vehicle: saline with Tween-80
[9] = endpoint: mean survival time, dose: 100.0 mg/kg/injection, schedule: Q04DX003 (ip), vehicle: saline
[10] = endpoint: mean survival time, dose: 200.0 mg/kg/injection, schedule: Q04DX003 (ip), vehicle: saline
[11] = endpoint: mean survival time, dose: 25.0 mg/kg/injection, schedule: Q04DX003 (ip), vehicle: saline with Tween-80
[12] = endpoint: mean survival time, dose: 50.0 mg/kg/injection, schedule: Q04DX003 (ip), vehicle: saline with Tween-80

Measured: T/C

CCOC(=O)CCOc1ccc(Cl)cc1
inactive: [1] 95 % of control | [2] 89 % of control | [3] 97 % of control | [4] 93 % of control | [5] 104 % of control | [6] 91 % of control

O=C(Nc1cc(Cl)ccc1Cl)c1ccc(Cl)cc1Cl
inactive: [7] 92 % of control | [1] 87 % of control | [2] 90 % of control | [3] 92 % of control | [4] 88 % of control

O=C(OCC1OCOC(COC(=O)c2ccccc2)C(OC(=O)c2ccccc2)C1OC(=O)c1ccccc1)c1ccccc1 (stereo not drawn)
inactive: endpoint: mean survival time, dose: 100.0 mg/kg/injection, schedule: Q04DX002 (ip), vehicle: saline with Tween-80 100 % of control | endpoint: mean survival time, dose: 200.0 mg/kg/injection, schedule: Q04DX002 (ip), vehicle: saline with Tween-80 88 % of control | endpoint: mean survival time, dose: 400.0 mg/kg/injection, schedule: Q04DX002 (ip), vehicle: saline with Tween-80 88 % of control

O=C(O)Cc1c[nH]c2ccc(O)cc12
inactive: [1] 98 % of control | [2] 105 % of control | [3] 96 % of control | [4] 100 % of control | [5] 95 % of control | [6] 100 % of control

CC(C)N1C(=O)C=C(c2ccc([N+](=O)[O-])cc2)C1=O
inactive: endpoint: mean survival time, dose: 6.25 mg/kg/injection, schedule: Q01DX009 (ip), vehicle: saline with Tween-80 93 % of control | endpoint: mean survival time, dose: 12.5 mg/kg/injection, schedule: Q01DX009 (ip), vehicle: saline with Tween-80 95 % of control | [8] 95 % of control | [7] 95 % of control

CC1(c2ccccc2)NC(=O)NC1=O (stereo not drawn)
inactive: endpoint: mean survival time, dose: 100.0 mg/kg/injection, schedule: Q01DX009 (ip), vehicle: other 98 % of control | [2] 94 % of control | endpoint: mean survival time, dose: 200.0 mg/kg/injection, schedule: Q01DX009 (ip), vehicle: other 97 % of control | [4] 97 % of control | [6] 91 % of control

COc1ccc(C(O)(CC(=O)O)c2ccc(OC)cc2)cc1
inactive: endpoint: mean survival time, dose: 100.0 mg/kg/injection, schedule: Q01DX001 (ip), vehicle: saline 98 % of control | endpoint: mean survival time, dose: 200.0 mg/kg/injection, schedule: Q01DX001 (ip), vehicle: saline 95 % of control | endpoint: mean survival time, dose: 400.0 mg/kg/injection, schedule: Q01DX001 (ip), vehicle: saline 97 % of control

O=C(O)CC(CC(=O)O)C(=O)O
inactive: [9] 101 % of control | [10] 103 % of control | endpoint: mean survival time, dose: 400.0 mg/kg/injection, schedule: Q04DX003 (ip), vehicle: saline 101 % of control

CC(=O)/C(C#N)=C(\C)N
inactive: endpoint: mean survival time, dose: 50.0 mg/kg/injection, schedule: Q04DX002 (ip), vehicle: saline 103 % of control | endpoint: mean survival time, dose: 100.0 mg/kg/injection, schedule: Q04DX002 (ip), vehicle: saline 103 % of control | endpoint: mean survival time, dose: 200.0 mg/kg/injection, schedule: Q04DX002 (ip), vehicle: saline 103 % of control

CC(C)(C)C(O)CC(O)(C(F)(F)Cl)C(F)(F)Cl (stereo not drawn)
inactive: [1] 101 % of control | [3] 109 % of control | [5] 105 % of control

Cc1ccccc1NC(=O)CN(C)C
inactive: endpoint: mean survival time, dose: 100.0 mg/kg/injection, schedule: Q01DX001 (ip), vehicle: other 98 % of control | endpoint: mean survival time, dose: 200.0 mg/kg/injection, schedule: Q01DX001 (ip), vehicle: other 103 % of control

COc1cc(C(=O)C(=O)c2cc(OC)c(OC)c(OC)c2)cc(OC)c1OC
inactive: endpoint: mean survival time, dose: 100.0 mg/kg/injection, schedule: Q01DX009 (ip), vehicle: Klucel (hydroxypropylcellulose) (HPC) 101 % of control | endpoint: mean survival time, dose: 200.0 mg/kg/injection, schedule: Q01DX009 (ip), vehicle: Klucel (hydroxypropylcellulose) (HPC) 106 % of control | endpoint: mean survival time, dose: 400.0 mg/kg/injection, schedule: Q01DX009 (ip), vehicle: Klucel (hydroxypropylcellulose) (HPC) 113 % of control

CC(C)(C)[Si](C)(C)OP(=O)(O[Si](C)(C)C(C)(C)C)N(CCCl)CCCl
inactive: endpoint: mean survival time, dose: 15.63 mg/kg/injection, schedule: Q01DX001 (ip), vehicle: distilled water + Tween-80 97 % of control | endpoint: mean survival time, dose: 31.3 mg/kg/injection, schedule: Q01DX001 (ip), vehicle: distilled water + Tween-80 103 % of control | endpoint: mean survival time, dose: 62.5 mg/kg/injection, schedule: Q01DX001 (ip), vehicle: distilled water + Tween-80 106 % of control | endpoint: mean survival time, dose: 125.0 mg/kg/injection, schedule: Q01DX001 (ip), vehicle: distilled water + Tween-80 105 % of control | endpoint: mean survival time, dose: 250.0 mg/kg/injection, schedule: Q01DX001 (ip), vehicle: distilled water + Tween-80 101 % of control | endpoint: mean survival time, dose: 500.0 mg/kg/injection, schedule: Q01DX001 (ip), vehicle: distilled water + Tween-80 109 % of control

CCOC(=O)Nc1cc2c(c(N)n1)N=C(c1ccccc1)CO2
inactive: endpoint: median survival time, dose: 25.0 mg/kg/injection, schedule: Q01DX009 (ip), vehicle: saline with Tween-80 97 % of control | endpoint: median survival time, dose: 50.0 mg/kg/injection, schedule: Q01DX009 (ip), vehicle: saline with Tween-80 117 % of control and 107 % of control and 108 % of control | endpoint: median survival time, dose: 100.0 mg/kg/injection, schedule: Q01DX009 (ip), vehicle: saline with Tween-80 122 % of control and 112 % of control (2×) | endpoint: median survival time, dose: 200.0 mg/kg/injection, schedule: Q01DX009 (ip), vehicle: saline with Tween-80 115 % of control and 116 % of control and 117 % of control

CC(=O)Nc1cccc(OCOc2ccc([N+](=O)[O-])cc2)c1
inactive: endpoint: mean survival time, dose: 100.0 mg/kg/injection, schedule: Q01DX001 (ip), vehicle: Klucel (hydroxypropylcellulose) (HPC) 90 % of control | endpoint: mean survival time, dose: 200.0 mg/kg/injection, schedule: Q01DX001 (ip), vehicle: Klucel (hydroxypropylcellulose) (HPC) 110 % of control | endpoint: mean survival time, dose: 400.0 mg/kg/injection, schedule: Q01DX001 (ip), vehicle: Klucel (hydroxypropylcellulose) (HPC) 97 % of control

Nc1ccc(OCC(=O)O)cc1
inactive: endpoint: mean survival time, dose: 100.0 mg/kg/injection, schedule: Q01DX001 (ip), vehicle: saline with Tween-80 101 % of control | endpoint: mean survival time, dose: 200.0 mg/kg/injection, schedule: Q01DX001 (ip), vehicle: saline with Tween-80 98 % of control | endpoint: mean survival time, dose: 400.0 mg/kg/injection, schedule: Q01DX001 (ip), vehicle: saline with Tween-80 110 % of control

CN(C)S(=O)(=O)CC(O)(c1ccccc1)c1ccccc1
inactive: [2] 103 % of control | [4] 103 % of control | [6] 110 % of control

Cc1ccc(C(C)C)c(O)c1O
inactive: [8] 94 % of control | [11] 96 % of control | [7] 103 % of control | [12] 98 % of control | [1] 97 % of control | [2] 94 % of control

OC(c1ccccc1)(c1ccc(-c2ccccc2)cc1)C(O)(c1ccccc1)c1ccc(-c2ccccc2)cc1 (stereo not drawn)
inactive: [11] 96 % of control | [12] 90 % of control | [2] 90 % of control and 100 % of control | [4] 92 % of control | [6] 92 % of control

CC1NCCOC1c1ccccc1 (stereo not drawn)
inactive: [9] 100 % of control | [10] 102 % of control

CCC1(O)CC2CN(CCc3c([nH]c4ccccc34)C(C(=O)OC)(c3cc4c(cc3OC)N(C)C3C(O)(C(=O)NCCO)C(O)C5(CC)C=CCN6CCC43C65)C2)C1 (stereo not drawn)
inactive: endpoint: mean survival time, dose: 0.36 mg/kg/injection, schedule: Q01DX009 (ip), vehicle: water 110 % of control | endpoint: mean survival time, dose: 0.52 mg/kg/injection, schedule: Q04DX003 (ip), vehicle: water 108 % of control | endpoint: mean survival time, dose: 0.86 mg/kg/injection, schedule: Q04DX003 (ip), vehicle: water 119 % of control | endpoint: mean survival time, dose: 1.44 mg/kg/injection, schedule: Q04DX003 (ip), vehicle: water 118 % of control | endpoint: mean survival time, dose: 2.4 mg/kg/injection, schedule: Q04DX003 (ip), vehicle: water 113 % of control

CCC(CCC(C)C1CCC2C3CC=C4CC(O)CCC4(C)C3CCC12C)C(C)C (stereo not drawn) (tested in a mixture with another compound)
inactive: endpoint: mean survival time, dose: 25.0 mg/kg/injection, schedule: Q01DX009 (ip), vehicle: acetone 93 % of control | endpoint: mean survival time, dose: 100.0 mg/kg/injection, schedule: Q01DX009 (ip), vehicle: acetone 87 % of control

COC1(c2ccccc2)CN(Cc2ccccc2)CCO1 (stereo not drawn)
inactive: [2] 103 % of control | [4] 100 % of control | [6] 106 % of control
